Series [1] has as its system full length IL-2 (amino acids 1-153) fused to Gaussia Luciferase. Nature of the series: Dox Induced IL2-FL-Gluc Assay. Type of series: cell-based. The note with it: 24 hr, 293FRT/TO; read-out: 24 hr Dox Inducible IL2FLGluc 293FRT/TO: Mean IC50. The gist of the method: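 Compounds in DMSO/media with doxycycline were added to cells plated the previous day and incubated at 37° C, 5% CO2. Cells: stable Flp-In 293 T-REx line, Dox-regulated expression of IL-2 (aa 1-153) fused at its C-terminus to Gaussia luciferase.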

The test system of series [2] is multiple myeloma cell line U266B1. The series can be described thus: U266 Cell Viability Assay. Type of series: cell-based, human. Conditions: Homo sapiens, U-266; 48 hr, U266; read-out: 48 hr U266 Viability Celltiter-Glo: Mean EC50. The procedure, abridged:
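Viability was measured by CellTiter-Glo luminescence after 48 h compound exposure at 37° C, 5% CO2. The cells were U266B1 multiple myeloma cells grown in RPMI 1640 plus 10% FBS. Where stereochemistry is not shown, values apply to the stereoisomer mixture.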
(In general: In ATP-based viability assays light output follows the ATP content of the culture.)

Series [3] is described as follows: In Vitro Microsome Stability Assay (human). Type of series: in vitro ADME. Conditions: human, 30 min, NADPH. The gist of the method:
(§1)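 Test article, added from a 0.25 mM DMSO stock, was incubated with liver microsomes (20 mg/mL stock) in 0.1 M potassium phosphate at 37° C, with the reaction started by NADPH. Samples were quenched with acetonitrile containing internal standard at 0 and 30 min and analysed by LC-MS/MS. Values are % remaining at 30 min versus 0 min, using IS-normalised AUC ratios.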

Series [4] has as its system multiple myeloma cell line NCl-H929. Nature of the series: H929 Cell Viability Assay. Type of series: cell-based, human. Conditions: Homo sapiens, NCI-H929, 48 h, H929, read-out: 48 hr H929 Viability Celltiter-Glo: Mean EC50. The procedure, abridged: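 Viability was determined by CellTiter-Glo luminescence after a 48 h, 37 °C exposure of NCI-H929 cells to serial compound dilutions in medium containing 10% FBS. Where stereochemistry is not shown, values refer to a mix of stereoisomers.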

Series [5] in a line: In Vitro Microsome Stability Assay (monkey). It is filed as in vitro ADME. The note with it: monkey, 30 min, NADPH. The gist of the method: as §1
Series [6] in a line: In Vitro Microsome Stability Assay (mouse). Type of series: in vitro ADME. Conditions: mouse, 30 min, NADPH. The procedure, abridged: as §1
Series [7] in a line: In Vitro Microsome Stability Assay (rat). Conditions: rat, 30 min, NADPH. It is filed as in vitro ADME. The procedure, abridged: as §1
For series [8], the system named is full length PD1 (amino acids 1-288) fused to Firefly Luciferase. Nature of the series: Dox Induced PD1-FL-Gluc Assay. Type of series: cell-based. Conditions: 24 hr, 293FRT/TO; read-out: 24 hr Dox Inducible PD1FLFluc 293FRT/TO: Mean IC50. The text has this: FIp-In 293 T-REx™ cells were transfected with pcDNA™5/FRT/TO plasmid inserted with cDNA encoding Firefly Luciferase fused to the 3′ end of cDNA encoding full length PD1 (amino acids 1-288). Transfected cells were selected for resistance to the selectable markers Hygromycin and Blasticidin to create a stable cell line that contained the PD1-FL/Firefly Luciferase cDNA insert whose expression was regulated under the T-REx™ system. The day before assay, cells were trypsinized and plated in 384-well tissue culture plates. The next day, compound dilutions in DMSO/media containing doxycycline were added to the wells and incubated at 37° C., 5% CO2.
For chemical structures that include one or more stereoisomers, but are illustrated without indicating stereochemistry, the assay data refers to a mixture of stereoisomers.

Series [9] deals with PD1 signal sequence plus 10 amino acids fused to Gaussia Luciferase (PD1-ss+10aa/Gaussia Luciferase). The series can be described thus: Dox Induced PD1-ss-Gluc Assay. The note with it: 24 hr, 293FRT/TO; read-out: 24 hr Dox Inducible PD1ssGluc 293FRT/TO: Mean IC50. It is filed as cell-based. The gist of the method:
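Compound dilutions in DMSO/media containing doxycycline were applied to a stable, inducible 293 T-REx line carrying the luciferase fusion, then incubated at 37 °C, 5% CO2. Where stereochemistry is not drawn, values relate to isomer mixtures.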

Series [10] concerns full length TNFα (amino acids 1-233) fused to Gaussia Luciferase. The series can be described thus: Dox Induced TNFα-FL-Gluc Assay. Type of series: cell-based. Conditions: 24 hr, 293FRT/TO; read-out: 24 hr Dox Inducible TNFaFLGluc 293FRT/TO: Mean IC50. The gist of the method:
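Compounds diluted in DMSO/medium with doxycycline were incubated at 37° C, 5% CO2 with 293 T-REx cells stably carrying a Tet-regulated TNFα(1-233)-Gaussia luciferase construct. Data for structures drawn without stereochemistry refer to stereoisomer mixtures.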

Structures can show the parent of a compound that is named as a salt.

With `C=C1CN(S(=O)(=O)c2ccc(C)cc2)CCCN(Cc2ccccc2)CCCN(S(=O)(=O)c2ccc(C)cc2)C1` [A1], the IC50 in series [1] is 1.17 µM; in series [8], 1.4 µM; in [9] it was 1.03 µM; in [10] it was > 25 µM. Besides, the EC50 in series [2] and in series [4] was > 25 µM each time. In addition, in series [3], the “Liver Microsome Stability-% Left after 30 min w/ NADPH (%) Human” value (“Liver Microsome Stability-% Left … (%) Human” below) turned out to be 0.18%. Also, in series [5], the “Liver Microsome Stability-% Left after 30 min w/ NADPH (%) Monkey” value (from here on “Liver Microsome Stability-% Left … (%) Monkey”) was 0.18%. Besides, the “Liver Microsome Stability-% Left after 30 min w/ NADPH (%) Mouse” value (“Liver Microsome Stability-% Left … (%) Mouse” below) in series [6] came to 0.21%. The “Liver Microsome Stability-% Left after 30 min w/ NADPH (%) Rat” value (from here on “Liver Microsome Stability-% Left … (%) Rat”) in series [7] amounted to 0.12%.
As to `Cc1ccc(S(=O)(=O)N2CCCN(CC3CCCCC3)CCCN(S(=O)(=O)c3ccc(N(C)C)cc3)CC3(CC3)C2)cc1` [A11, 4-{[9-(cyclohexylmethyl)-13-(4-methylbenzenesulfonyl)-5,9,13-triazaspiro[2.11]tetradecan-5-yl]sulfonyl}-N,N-dimethylaniline hydrochloride], the IC50 in [1] was 0.624 µM; in series [8] it was 0.866 µM; in [9], 0.365 µM; in series [10], > 25 µM. Further, the EC50 in [2] and in series [4] was > 25 µM throughout. In addition, in [3], the “Liver Microsome Stability-% Left … (%) Human” value stood at 0.21%. Moreover, in series [5], the “Liver Microsome Stability-% Left … (%) Monkey” value amounted to 0.08%. The “Liver Microsome Stability-% Left … (%) Mouse” value in series [6] came to 0.18%. For the same compound, the “Liver Microsome Stability-% Left … (%) Rat” value in series [7] turned out to be 0.17%.
For `Cc1ccc(S(=O)(=O)N2CCCN(CC3CCCCC3)CCCN(S(=O)(=O)c3ccc(N(C)C)cc3)CCC2)cc1` [A14, 4-((5-(cyclohexylmethyl)-9-tosyl-1,5,9-triazacyclododecan-1-yl)sulfonyl)-N,N-dimethylaniline], the IC50 is 1.16 µM in series [1], 1.23 µM in series [8], 0.64 µM in series [9] and > 25 µM in series [10]. Moreover, the EC50 in series [2] and in series [4] was > 25 µM in each case. In [3], the “Liver Microsome Stability-% Left … (%) Human” value is 0.08%. Also, in series [5], the “Liver Microsome Stability-% Left … (%) Monkey” value is 1.4%. Further, the “Liver Microsome Stability-% Left … (%) Mouse” value in series [6] was 5.39%. Besides, the “Liver Microsome Stability-% Left … (%) Rat” value in series [7] stood at 1.13%.
In the case of `CC1CCN(S(=O)(=O)N2CCCN(CC3CCCCC3)CCCN(S(=O)(=O)c3ccc(N(C)C)cc3)CC3(CC3)C2)CC1` [A22, 4-{[9-(cyclohexylmethyl)-13-[(4-methylpiperidin-1-yl)sulfonyl]-5,9,13-triazaspiro[2.11]tetradecan-5-yl]sulfonyl}-N,N-dimethylaniline], the IC50 was 0.37 µM in [1], 0.404 µM in series [8], 0.156 µM in series [9] and 6.38 µM in series [10]. For the same compound, the EC50 (commonly the concentration needed to bring the measured effect to its halfway point) in series [2] is > 25 µM; in series [4] it was 6.67 µM. Moreover, the “Liver Microsome Stability-% Left … (%) Human” value in [3] was determined as 0.16%. In addition, the “Liver Microsome Stability-% Left … (%) Monkey” value in [5] is 0.11%. For the same compound, in series [6], the “Liver Microsome Stability-% Left … (%) Mouse” value stood at 0.12%. Further, the “Liver Microsome Stability-% Left … (%) Rat” value in [7] amounted to 0.4%.
`C=C1CN(S(=O)(=O)c2ccc(N(C)C)cc2)CCCN(CC2CCCCC2)CCCN(S(=O)(=O)N2CCc3ccccc3C2)C1` [A50, 4-{[9-(cyclohexylmethyl)-3-methylidene-5-(1,2,3,4-tetrahydroisoquinoline-2-sulfonyl)-1,5,9-triazacyclododecan-1-yl]sulfonyl}-N,N-dimethylaniline]: the IC50 was found to be 0.057 µM in series [1], 0.0741 µM in series [8], 0.0222 µM in series [9] and 0.661 µM in series [10]. In addition, the results for the concentration giving a half-maximal response (EC50) in series [2] and in series [4] were 6.54 µM and 1.01 µM, respectively. The “Liver Microsome Stability-% Left … (%) Human” value in [3] came to 1.32%. Besides, the “Liver Microsome Stability-% Left … (%) Monkey” value in [5] is recorded as 0.79%. The “Liver Microsome Stability-% Left … (%) Mouse” value in series [6] stood at 70.1%. The “Liver Microsome Stability-% Left … (%) Rat” value in series [7] worked out at 3.6%.
On to `CN(C)c1ccc(S(=O)(=O)N2CCCN(CC3CCCCC3)CCCN(S(=O)(=O)N3CCC(c4ccccc4)CC3)CC3(CC3)C2)cc1` [A29, 4-{[9-(cyclohexylmethyl)-13-[(4-phenylpiperidin-1-yl)sulfonyl]-5,9,13-triazaspiro[2.11]tetradecan-5-yl]sulfonyl}-N,N-dimethylaniline], for which the IC50 is 0.447 µM in series [1], 0.591 µM in [8], 0.241 µM in [9] and > 25 µM in series [10]. Besides, the concentration giving a half-maximal response (EC50) in series [2] and in [4] was > 25 µM throughout. Also, the “Liver Microsome Stability-% Left … (%) Human” value in series [3] came out at 39.6%. Moreover, the “Liver Microsome Stability-% Left … (%) Monkey” value in series [5] came out at 19.5%. In addition, in series [6], the “Liver Microsome Stability-% Left … (%) Mouse” value stood at 32.4%. The “Liver Microsome Stability-% Left … (%) Rat” value in [7] amounted to 43.3%.
For `C=C1CN(S(=O)(=O)c2c(F)cc(N(C)C)cc2F)CCCN(CC2CCCCC2)CCCN(S(=O)(=O)N2CCC(c3ccccc3)CC2)C1` [A86], the IC50 in series [1] is 0.395 µM; in series [8], 0.429 µM; in [10] it was > 25 µM. The EC50 was > 25 µM in series [2] and 5.63 µM in [4]. Besides, the “Liver Microsome Stability-% Left … (%) Human” value in series [3] came out at 41.3%. In addition, the “Liver Microsome Stability-% Left … (%) Monkey” value in series [5] was determined as 29.2%. In [6], the “Liver Microsome Stability-% Left … (%) Mouse” value was 34.1%. Besides, the “Liver Microsome Stability-% Left … (%) Rat” value in [7] was 39.9%.
As to `C=C1CN(S(=O)(=O)c2ccc(N(C)C)cc2)CCCN(CC2CCCCC2)CCCN(S(=O)(=O)N2CCC(c3ccccc3)CC2)C1` [A35, 4-{[9-(cyclohexylmethyl)-3-methylidene-5-[(4-phenylpiperidin-1-yl)sulfonyl]-1,5,9-triazacyclododecan-1-yl]sulfonyl}-N,N-dimethylaniline hydrochloride], the 50% effective concentration (EC50) in [2] and in [4] was > 25 µM each time. Also, the “Liver Microsome Stability-% Left … (%) Human” value in series [3] was 24.8%. Moreover, the “Liver Microsome Stability-% Left … (%) Monkey” value in [5] is 13.6%. Besides, the “Liver Microsome Stability-% Left … (%) Mouse” value in series [6] was 20.9%. Further, the “Liver Microsome Stability-% Left … (%) Rat” value in series [7] is 30%. Besides, the IC50 in series [8] is 0.244 µM; in [9], 0.083 µM; in series [10], > 11.9 µM.
As for `C=C1CN(S(=O)(=O)c2ccc(C)cc2)CCCN(CC2CCCCC2)CCCN(S(=O)(=O)c2ccc(N(C)C)cc2)C1` [A4], the EC50 is > 25 µM in series [2] and 1.22 µM in series [4]. In addition, the “Liver Microsome Stability-% Left … (%) Human” value in [3] came to 0.25%. The “Liver Microsome Stability-% Left … (%) Monkey” value in [5] was determined as 1.17%. The “Liver Microsome Stability-% Left … (%) Mouse” value in series [6] is listed as 0.56%. Besides, the “Liver Microsome Stability-% Left … (%) Rat” value in [7] was 1.17%. Also, the IC50 in series [8] worked out at 0.311 µM; in series [9], 0.0939 µM; in series [10] it was 3.76 µM.

(Values after US11578055B2, “Triazacyclododecansulfonamide (“TCD”)-based protein secretion inhibitors” (KEZAR LIFE SCIENCES, priority 2018, dated 2023).)
